Test [1] concerns E12.5 RARγ wild type (+/+), heterozygote (+/−) and null (−/−) mutant lungs. The experiment in a line: ATBN in RARγ wild type, heterozygote and null lung explants. The class given is cell-based, mouse. Particulars: 10^−6 M. How it is done: FIG. 4C. E12.5 RARγ wild type (+/+), heterozygote (+/−) and null (−/−) mutant lungs from RARγ^+/−/RARγ^+/−heterozygote crosses were cultured for 24 hours in the absence of retinoids and then for 72 hours in the presence of 10^−6M Compound VIII (seven explants per group, two individual experiments). […] Error bars represent +/− standard deviation. Scale bar=100 μm.
RARα1, RARα2 and RARγ2 transcripts are expressed ubiquitously in E13.5 lungs in vivo. […]
(§1) The mouse lines carrying the RARβ, RARγ and CRBPI null mutations and their genotyping protocols have been described previously (Lohnes, D., et al., Cell 73:643-658 (1993); Ghyselinck, N. B., et al., Int. J. Dev. Biol. 41:425-447 (1997); Ghyselinck, N. B., et al., EMBO J. 18:4903-4914 (1999)). […] Average terminal bud number (ATBN) was calculated after counting every bud in each explant at 0, 24, 48, 72 and 96 hours after the commencement of culture. Significant differences in ATBN between different groups were determined by ANOVA and Newman-Keuls multiple comparison tests according to previously described methods (Motulsky, H., Intuitive Biostatistics, New York: Oxford University Press (1995)). […]

The subject of test [2] is RARβ transcripts. The experiment in a line: RARβ expression in lung explants (whole-mount ISH, RNAse protection). The class given is cell-based, mouse. Particulars: for retinoid-induced changes in RARβ expression: 10^−6 M RA and 10^−6 M Compound VIII simultaneously added; for RARβ expression: 10^−6 M, E11.75 lung explants. How it is done: FIG. 3A. Whole-mount ISH for detection of RARβ transcripts following 24 hours of exposure of E11.75 lung explants to either retinoid vehicle alone, 10^−6 M RA or 10^−6 M Compound VIII.
FIG. 3B. RNAse protection analyses of RARβ 1/3/4, RARβ2 and vimentin transcripts in lungs explanted at E11.75 and cultured for four days in the presence of retinoids or ethanol; the explants were analyzed four hours after the last addition of the retinoids and/or ethanol to the culture media (2 μg RNA per track; exposure times, four to 24 hours).
The expression pattern of RARβ transcripts in E11.75 lung explants cultured for 24 hours in the absence of retinoids was similar to that observed in vivo at E13.5 (FIG. 3A). […] It is also noteworthy that only limited changes in the expression of vimentin, a specific mesenchymal marker, occurred following retinoid treatment (FIG. 3B). […] In order to investigate this possibility, we compared the effects of 10^−6 M RA upon ATBN in explants from RARβ null embryos (Ghyselinck, N. B., et al., Int. J. Dev. Biol. 41:425-447 (1997)), heterozygotesi and wild type littermates. […] The explants were then treated for 48 hours with 10^−6 M RA (FIG. 3C).
Total RNA preparation, RNAse protection assays and in situ hybridizations were performed as previously described (Chirgwin, J. M., et al., Biochemistry 18:5294-5299 (1979); Décimo, D., et al., “In situ hybridization of nucleic acid probes to cellular RNA,” in Gene Probes 2, A Practical Approach, Hames, B. D. and Higgins, S., eds.: Oxford University Press (1995) pp. 183-210; Mollard, R. and Dziadek, M., Int. J. Dev. Biol. 41:655-666 (1997); Ghyselinck, N. B., et al., Int. J. Dev. Biol. 41:425-447 (1997)). CRBPI, H4, RARβ and vimentin cDNAs have been previously described (Ghyselinck, N. B., et al., Int. J. Dev. Biol. 41:425-447 (1997); Mollard, R. and Dziadek, M., Int. J. Dev. Biol. 41:655-666 (1997)).

The subject of test [3] is E12.5 CRBPI null mutant lungs. The experiment in a line: ATBN in CRBPI null mutant lung explants. The class given is cell-based, mouse.
From the text: FIG. 5B. ATBN in CRBPI null mutant lungs cultured for four days in the presence of either ethanol alone (control), or 10^−6 M or 10^−7 M Compound VIII. Six explants per group, three individual experiments; * p<0.01 relative to control. Error bars represent +/− standard deviation.
The lung at the pseudoglandular stage is a major site of expression of CRBPI in the embryo (Dollé, P., et al., Development 110:1133-1151 (1990)). In cultured E12.5 wild type lungs, CRBPI expression was increased in the presence of 10^−6 M RA and decreased by 10^−6 M Compound VIII (FIG. 5A). […]
as §1

Test [4] relates to CRBPI transcripts. The experiment in a line: CRBPI expression in cultured lungs (RNAse protection). The conditions noted are these: 10^−6 M, cultured E12.5 wild type lungs. The class given is cell-based, mouse. How it is done:
FIG. 5A. RNAse protection analysis of CRBPI transcripts in E11.75 wild type lungs cultured for four days in the presence of retinoids or ethanol; the explants were analyzed four hours after the last addition of the retinoids, and/or ethanol to the culture media (2 μg RNA per track; exposure times, four to 24 hours). Six experiments per group, 10 lungs per experiment.
The lung at the pseudoglandular stage is a major site of expression of CRBPI in the embryo (Dollé, P., et al., Development 110:1133-1151 (1990)). In cultured E12.5 wild type lungs, CRBPI expression was increased in the presence of 10^−6 M RA and decreased by 10^−6 M Compound VIII (FIG. 5A). Thus, increased and decreased expression of CRBPI are correlated with retinoid-induced inhibition and stimulation of branching, respectively. To further test an involvement of CRBPI in lung morphogenesis, explants from E12.5 CRBPI null mutants (Ghyselinck, N. B., et al., EMBO J. 18:4903-4914 (1999)) were cultured in the presence of various concentrations of the pan-RAR antagonist. […]

For test [5], the system named is E8.0 embryos. The experiment in a line: Whole embryo culture, primary lung bud and oesophagotracheal fold formation. The class given is cell-based, mouse. As to the method:
Embryos were collected at E8.0 (i.e. 36 hours prior to the formation of primary lung buds and tracheal diverticulum; Kaufman, M. H., The Atlas of Mouse Development, London Academic Press (1992)), and cultured for 48 hours (i.e. until the equivalent of E9.5 in vivo) either in the presence of the pan-RAR antagonist, Compound VIII (Chazaud, C., et al., Development 126:2589-2596 (1999); Wendling, O., et al., Development 127:1553-62 (2000), or in the presence of the retinoid vehicle (i.e. ethanol alone). Treatment with 10^−6 M Compound VIII, inhibited primary lung bud outgrowth (FIGS. 1A-1D; l and r) and caused a failure of oesophagotracheal fold formation (arrowheads in FIG. 1F compare with FIG. 1G). […] Therefore, a block in RA signal transduction before and at the onset of lung bud appearance inhibits the formation of the respiratory system from the primitive foregut.
Whole embryos from CD 1×CD 1 crosses were collected at E8.0, staged and cultured according to previously described methods in the presence of retinoids or ethanol vehicle alone for 48 hours (New D.A.T., Postimplantation Mammalian Embryos: A Practical Approach, Cop, A. J. and Cockroft, D. L., eds., Oxford University Press (1990); Wendling, O., et al., Development 127:1553-62 (2000)). For morphological assessment, serial transverse histological sections were stained with hematoxylin and eosin.

Test [6] relates to E11.75 wild type lungs. The experiment in a line: Lung explant culture, average terminal bud number (ATBN), wild type. Particulars: for average terminal bud number (ATBN): 4 days in culture; for retinoid-induced changes in ATBN: 10^−6 M RA and 10^−6 M Compound VIII simultaneously added. The class given is cell-based, mouse. As to the method: Lung explants from E11.75 or E12.5 embryos were cultured for 4 days, unless otherwise indicated. Control explants were cultured in the presence of the retinoid vehicle alone.
The mouse lines carrying the RARβ, RARγ and CRBPI null mutations and their genotyping protocols have been described previously (Lohnes, D., et al., Cell 73:643-658 (1993); Ghyselinck, N. B., et al., Int. J. Dev. Biol. 41:425-447 (1997); Ghyselinck, N. B., et al., EMBO J. 18:4903-4914 (1999)). The morning of appearance of the vaginal plug was designated as E0.5. For explant culture, E11.75 and E12.5 lungs from RARβ^+/−×RARβ^+/−, RARγ^+/−×RARγ^+/−, CRBPI^−/−×CRBPI^−/− and wildtype crosses were dissected in PBS and incubated in BGJB medium (Fitton-Jackson modified, GibcoBRL), 5% delipidated fetal calf serum (FCS, GibcoBRL) and […] vitamin C (Sigma) on millipore filters (GibcoBRL), at 37° C., in the presence of 5% CO2. Half of the media, supplemented with fresh retinoids (see below), was changed daily. The cultured lung buds reproducibly grew and branched for at least seven days in culture (data not shown). Average terminal bud number (ATBN) was calculated after counting every bud in each explant at 0, 24, 48, 72 and 96 hours after the commencement of culture. Significant differences in ATBN between different groups were determined by ANOVA and Newman-Keuls multiple comparison tests according to previously described methods (Motulsky, H., Intuitive Biostatistics, New York: Oxford University Press (1995)). The synthetic retinoid Compound VIII [a specific pan RAR (α, β and γ) antagonist (Bristol-Myers-Squibb, N.J.); Chazaud, C., et al., Development 126:2589-2596 (1999); Wendling, O., et al., Development 127:1553-62 (2000)] and RA (all-trans retinoic acid) (Sigma) were diluted in ethanol and added to the culture medium at a final ethanol concentration of 0.1% at the beginning of culture and every subsequent 24 hours.

The subject of test [7] is lung cultures. Particulars: cited from earlier work.
Test [8] relates to E12.5 RARβ wild type, heterozygote (+/−) and null (−/−) mutant lungs. Description: ATBN in lung explants from RARβ null, heterozygote and wild type littermates. The class given is cell-based, mouse. Particulars: 10^−6 M, 48 hours, vs RARβ+/− ethanol controls.
Experimental: Appearance of representative E12.5 RARβ, heterozygote (+/−) and null (−/−) mutant lungs from RARβ^+/−/RARβ^+/− crosses, cultured for 24 hours in the absence of retinoids and then 48 hours in the presence of either vehicle alone or 10^−6 M RA. The accompanying histogram depicts ATBN versus treatment at 72 hours of culture; each group consists of seven explants and is representative of two individual experiments. b1=primary bronchi; b2=secondary bronchi; db=distal bud; m=mesenchyme; * p<0.01 relative to control. Error bars represent +/− standard deviation.
For explant culture, E11.75 and E12.5 lungs from RARβ^+/−×RARβ^+/−, RARγ^+/−×RARγ^+/−, CRBPI^−/−×CRBPI^−/− and wildtype crosses were dissected in PBS and incubated in BGJB medium (Fitton-Jackson modified, GibcoBRL), 5% delipidated fetal calf serum (FCS, GibcoBRL) and 180mg/ml vitamin C (Sigma) on millipore filters (GibcoBRL), at 37° C., in the presence of 5% CO2. Half of the media, supplemented with fresh retinoids (see below), was changed daily. […] Average terminal bud number (ATBN) was calculated after counting every bud in each explant at 0, 24, 48, 72 and 96 hours after the commencement of culture. Significant differences in ATBN between different groups were determined by ANOVA and Newman-Keuls multiple comparison tests according to previously described methods (Motulsky, H., Intuitive Biostatistics, New York: Oxford University Press (1995)).
Test [9] concerns pulmonary alveoli. Particulars: cited from earlier work; for number of pulmonary alveoli: postnatal treatment, newborn rats.
Where [10] appears, read: 10^−6 M, E8.0 embryos cultured 48 hours, vs ethanol vehicle.

Structures are written as SMILES. “Also recorded” adds a separate entry of the source. Like-named read-outs stand apart in the source and are kept apart here.

Consider `CC1(C)CC=C(C#Cc2ccccc2)c2cc(/C=C/c3ccc(C(=O)O)cc3)ccc21` [Compound VIII], for which the “differences in the stimulation of ATBN between RARγ genotype groups” value in test [1] is recorded as “No significant differences”. Also, in [2], the “retinoid-induced changes in RARβ expression” value is “prevented” and the RARβ expression result is “decreased RARβ expression in secondary bronchi”. Besides, in test [3] (CRBPI null lungs, 10^−7 M, four days), the ATBN entry is “significant increase”. Besides, the “sensitivity of CRBPI null lungs relative to wild type lungs to stimulation of distal bud formation” value in test [3] (CRBPI null vs wild type lungs) was “approximately 10 fold”. Further, in test [4], the CRBPI expression entry is “decreased”. Also, in test [5] (setting [10]), the oesophagotracheal fold formation entry is given as “failure” and the “primary lung bud outgrowth” value is “inhibited”. Also, the “average terminal bud number (ATBN)” value in test [6] (2×10^−6 M) is listed as “significantly increased; also recorded: significant increases”. Moreover, in test [6] (10^−6 M), the “explant size and terminal bud numbers” value was “Increased”; the “average terminal bud number (ATBN)” value is “significantly increased; also recorded: significant increases”. Also, the “retinoid-induced changes in ATBN” value in test [6] is listed as “prevented”. Also, the “RA-induced decrease in ATBN” value in test [6] (10^−6 M and 10^−7 M RA with concomitant 10^−6 M Compound VIII) is “negated”. Besides, in test [6] (10^−7 M), the “average terminal bud number (ATBN)” value was “ineffective”. In addition, the “average terminal bud number (ATBN)” value in [6] (10^−8 M) was “ineffective”.

Take `CC1=C(/C=C/C(C)=C/C=C/C(C)=C/C(=O)O)C(C)(C)CCC1` [RA, all-trans retinoic acid]: the “retinoid-induced changes in RARβ expression” value in [2] is listed as “prevented”. In addition, the RARβ expression result in test [2] was “induced the expression of RARβ throughout the pulmonary tree, including the distal buds”. In test [7], the branching morphogenesis result is “inhibitory effect”. For the same molecule, the ATBN result is given as “no significant difference” in test [8] (RARβ null explants), “significant reduction” in test [8] (RARβ+/− explants) and “significant reduction” in test [8] (wild type explants). Further, the CRBPI expression entry in test [4] is recorded as “increased”. Moreover, the “Compound VIII-induced defects of lung bud outgrowth and oesophagotracheal fold formation” value in [5] (simultaneous addition of 10^−6 M Compound VIII and 10^−7 M RA, 48 hours) was “partially prevented”. The alveolar number result in test [9] (animal models of emphysema) was “restores”. Moreover, the “number of pulmonary alveoli” value in [9] is “increases”; in test [9] (listed as retinoic acid), “increase”. Besides, the “increased explant size and terminal bud numbers of Compound VIII treated explants” value in test [6] (10^−6 M Compound VIII with concomitant 10^−6 M RA) is reported as “reduced”. The “retinoid-induced changes in ATBN” value in test [6] is recorded as “prevented”. Besides, the entries for the “average terminal bud number (ATBN)” value in [6] (10^−6 M), in [6] (10^−7 M) and in [6] (10^−8 M) were “significantly decreased; also recorded: significant decrease”, “significantly decreased; also recorded: significant decrease” and “ineffective”, respectively.

The record behind these values is US20020048580A1, “Method of inducing lung branching” (Institut National De La Sante Et De La Recherche Medicale, priority 2000, published 2002).
